Reference: US20120083471A1, “Novel Compounds, Pharmaceutical Compositions Containing Same, Methods of Use for Same, and Methods for Preparing Same” (priority 2008, published 2012)
Like-named read-outs stand apart in the source and are kept apart here.

Tests used:
mtGPAT1 = biological target: T1, mtGPAT1 (Mus musculus, UniProt Q61586); assay: In vitro mtGPAT inhibition: acylation of 14C-glycerol 3-phosphate with palmitoyl-CoA, scintillation counting; type: biochemical
T1 construct: from tissue; host or cells: mitochondrial preparation
T1 sequence (Q61586 1-827): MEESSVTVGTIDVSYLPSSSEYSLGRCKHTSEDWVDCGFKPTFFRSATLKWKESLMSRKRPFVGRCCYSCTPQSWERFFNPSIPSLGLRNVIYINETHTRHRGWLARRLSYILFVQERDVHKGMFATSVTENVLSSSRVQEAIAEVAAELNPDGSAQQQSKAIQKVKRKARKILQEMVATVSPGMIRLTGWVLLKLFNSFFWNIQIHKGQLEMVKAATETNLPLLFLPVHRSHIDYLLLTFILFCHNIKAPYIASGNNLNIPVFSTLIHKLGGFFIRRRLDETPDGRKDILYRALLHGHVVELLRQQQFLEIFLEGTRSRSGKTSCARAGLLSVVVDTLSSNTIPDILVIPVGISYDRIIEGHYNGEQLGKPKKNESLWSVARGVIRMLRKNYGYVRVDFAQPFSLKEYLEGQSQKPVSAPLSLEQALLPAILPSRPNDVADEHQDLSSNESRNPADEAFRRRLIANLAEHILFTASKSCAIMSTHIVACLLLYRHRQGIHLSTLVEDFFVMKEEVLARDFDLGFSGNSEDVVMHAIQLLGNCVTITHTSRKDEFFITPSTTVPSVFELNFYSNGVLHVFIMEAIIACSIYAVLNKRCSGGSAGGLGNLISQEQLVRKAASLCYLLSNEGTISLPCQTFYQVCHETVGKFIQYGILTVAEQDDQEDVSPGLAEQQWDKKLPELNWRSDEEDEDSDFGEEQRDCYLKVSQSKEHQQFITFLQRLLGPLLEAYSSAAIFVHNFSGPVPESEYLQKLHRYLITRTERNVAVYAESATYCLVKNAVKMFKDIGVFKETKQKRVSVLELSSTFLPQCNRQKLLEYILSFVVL
Procedure: The compounds produced as described above were evaluated for their ability to inhibit the acylation of glycerol-3-phosphate in vitro. The acylation reaction between ^14C-labelled glycerol-3-phosphate and palmitoyl-CoA, initiated by adding mtGPAT, was measured in the presence of varying concentrations of the inhibitor by scintillation counting as described in more detail below.
A mitochondrial preparation of glycerol 3-phosphate acyltransferase was added to the incubation mixture containing ^14C-labeled glycerol 3-phosphate, palmitoyl-CoA, and varying inhibitor concentrations to initiate the reaction. After ten min, the reaction was terminated by adding chloroform, methanol, and 1% perchloric acid. Five minutes later, more chloroform and perchloric acid were added, and the upper aqueous layer was removed. After washing three times with 1% perchloric acid, the organic layer was evaporated under nitrogen, and the amount of ^14C present was counted to determine the extent of reaction inhibition. Data points were recorded in triplicate, and IC50 values were calculated based on the amount of test inhibitor necessary to produce 50% of mtGPAT activity observed in the absence of inhibitor but in the presence of DMSO vehicle control.

FAO = FAO (SC 150 and Max) entries of the compound data sheets
[1] = Table 1, sulfonamides 5a-f and 13a-f, triplicate, read-out: IC50 (μM) ± SD, In Vitro Anti-mtGPAT1 Activity
[2] = Table 2, sulfonamides 15a-i and 17a-f, triplicate, read-out: IC50 (μM) ± SD, In Vitro Anti-mtGPAT1 Activity
[3] = Table 3, sulfonamides 21a-c and 24a-f, triplicate, read-out: IC50 (μM) ± SD, In Vitro Anti-mtGPAT1 Activity
[4] = compounds 4a-t and 7a-t, read-out: GPAT IC50

**Q.** Which IC50 (mtGPAT1; [1]) does the source give for `CCCCCCCCCS(=O)(=O)NCc1ccc(C(=O)O)cc1` [Compound 5b, 4-(Nonylsulfonamidomethyl)benzoic acid] here?
**A.** Its IC50 is 43.9 µM.

**Q.** And the melting point?
**A.** The melting point was 178 to 180 °C.

**Q.** For `CCCCCS(=O)(=O)NCc1ccccc1C(=O)O` [Compound 5e, 2-(Pentylsulfonamidomethyl)benzoic acid], which IC50 (mtGPAT1; [1]) is on record?
**A.** Its IC50 is 61.9 ± 13.5 µM.

**Q.** What about the melting point of the same compound?
**A.** Its melting point is 100 °C.

**Q.** Which results are given for `O=C(O)c1ccccc1NS(=O)(=O)c1ccccc1` [Compound 15h, 2-(Phenylsulfonamido)benzoic acid]?
**A.** IC50 (mtGPAT1; [2]): 40.5 ± 2.6 µM; melting point: 213 to 215 °C

**Q.** With `CCCCCCCCCS(=O)(=O)NCc1ccccc1C(=O)O` [Compound 5f, 2-(Nonylsulfonamidomethyl)benzoic acid] as the compound, how does the IC50 (mtGPAT1; [1]) read?
**A.** Its IC50 is 22.7 µM.

**Q.** What about the melting point of the same compound?
**A.** The melting point was 79 to 82 °C.

**Q.** Which IC50 (mtGPAT1; [1]) does the source give for `CCCCCS(=O)(=O)NCc1cccc(C(=O)O)c1` [Compound 5c, 3-(Pentylsulfonamidomethyl)benzoic acid] here?
**A.** The IC50 was 88.5 ± 1.7 µM.

**Q.** What about the melting point of the same compound?
**A.** Its melting point is 160 to 161 °C.

**Q.** With `CCCCCCCCCS(=O)(=O)Nc1cccc(C(=O)O)c1` [Compound 15d, 3-(Nonylsulfonamido)benzoic acid] as the compound, how does the IC50 (mtGPAT1; [2]) read?
**A.** The IC50 was 24.2 ± 2.9 µM.

**Q.** What about the melting point of the same compound?
**A.** Its melting point is 183 to 184 °C.

**Q.** With `CCCCCS(=O)(=O)Nc1ccc(CP(=O)(O)O)cc1` [Compound 13e, 4-(Pentylsulfonamido)benzylphosphonic acid] as the compound, how does the IC50 (mtGPAT1; [1]) read?
**A.** Its IC50 is 47.7 ± 9.6 µM.

**Q.** And the melting point?
**A.** Its melting point is 198 to 200 °C.

**Q.** What does the source list for `CCCCCCCCS(=O)(=O)Nc1ccc(O)cc1C(=O)O` [Compound 24e, 5-Hydroxy-2-(octylsulfonamido)benzoic acid]?
**A.** IC50 (mtGPAT1; [3]): 38.2 ± 4.1 µM; melting point: 142 to 144 °C

**Q.** Which results are given for `CCCCCS(=O)(=O)Nc1cccc(CP(=O)(O)O)c1` [Compound 13c, 3-(Pentylsulfonamido)benzylphosphonic acid]?
**A.** IC50 (mtGPAT1; [1]): 45.3 ± 9 µM; melting point: 127 to 128 °C

**Q.** For `CCCCCCCCCS(=O)(=O)NCc1cccc(C(=O)O)c1` [Compound 5d, 3-(Nonylsulfonamidomethyl)benzoic acid], which IC50 (mtGPAT1; [1]) is on record?
**A.** The IC50 was 28.5 µM.

**Q.** And the melting point?
**A.** Its melting point is 150 to 151 °C.

**Q.** For `CCCCCCCCS(=O)(=O)Nc1ccc(-c2ccccc2OC)cc1C(=O)O`, which “FAO SC 150” value (FAO) is on record?
**A.** The value was “FAS (IC50) Not Tested CPT I Stim Not Tested FAO SC 150 Neg SA/MH (MIC) ug/ml”.

**Q.** And the IC50 (mtGPAT1; [4])?
**A.** Its IC50 is 23.4 µM.

**Q.** Which “FAO SC 150” value (FAO) does the source give for `CCCCCCCCS(=O)(=O)Nc1ccc(-c2ccccc2Cl)cc1C(=O)O` here?
**A.** Its value is “FAS (IC50) Not Tested CPT I Stim Not Tested FAO SC 150 Neg SA/MH (MIC) ug/ml”.

**Q.** What about the IC50 (mtGPAT1; [4]) of the same compound?
**A.** The IC50 was 14.4 µM.

**Q.** For `CCCCCCCCS(=O)(=O)Nc1ccc(-c2ccc(Cl)cc2)cc1C(=O)O`, which “FAO SC 150” value (FAO) is on record?
**A.** Its value is “FAS (IC50) Not Tested CPT I Stim Not Tested FAO SC 150 Neg SA/MH (MIC) ug/ml”.

**Q.** What about the IC50 (mtGPAT1; [4]) of the same compound?
**A.** Its IC50 is 13.4 µM.

**Q.** Which IC50 (mtGPAT1; [1]) does the source give for `CCCCCCCCCS(=O)(=O)Nc1cccc(CP(=O)(O)O)c1` [Compound 13d, 3-(Nonylsulfonamido)benzylphosphonic acid] here?
**A.** Its IC50 is 23.7 µM.

**Q.** What about the melting point of the same compound?
**A.** The melting point was 149 to 150 °C.

**Q.** With `CCCCCCCCS(=O)(=O)Nc1cc(-c2cccnc2)ccc1C(=O)O` as the compound, how does the “FAO SC 150” value (FAO) read?
**A.** The value was “FAS (IC50) Not Tested CPT I Stim Not Tested FAO SC 150 Neg SA/MH (MIC) ug/ml”.

**Q.** What about the IC50 (mtGPAT1; [4]) of the same compound?
**A.** The IC50 was 65.8 µM.

**Q.** Which results are given for `CCCCCCCCS(=O)(=O)Nc1ccc(F)cc1C(=O)O` [Compound 24f, 5-Fluoro-2-(octylsulfonamido)benzoic acid]?
**A.** IC50 (mtGPAT1; [3]): 29.5 ± 2.6 µM; melting point: 141 to 143 °C

**Q.** Which “FAO SC 150” value (FAO) does the source give for `CCCCCCCCS(=O)(=O)Nc1cc(-c2ccccc2OC)ccc1C(=O)O` here?
**A.** The value was “FAS (IC50) Not Tested CPT I Stim Not Tested FAO SC 150 Neg SA/MH (MIC) ug/ml”.

**Q.** What about the IC50 (mtGPAT1; [4]) of the same compound?
**A.** The IC50 was 17.6 µM.

**Q.** With `CCCCCCCCCCCCCCCCS(=O)(=O)Nc1ccccc1C(=O)O` [Compound 24c, 2-(Hexadecylsulfonamido)benzoic acid] as the compound, how does the IC50 (mtGPAT1; [3]) read?
**A.** The IC50 was 7.8 ± 0.8 µM.

**Q.** And the melting point?
**A.** Its melting point is 126 to 128 °C.

**Q.** For `CCCCCCCCCCCCCCS(=O)(=O)Nc1ccccc1C(=O)O` [Compound 24b, 2-(Tetradecylsulfonamido)benzoic acid], which IC50 (mtGPAT1; [3]) is on record?
**A.** Its IC50 is 6.9 ± 0.5 µM.

**Q.** What about the melting point of the same compound?
**A.** The melting point was 120 to 122 °C.

**Q.** Which IC50 (mtGPAT1; [1]) does the source give for `CCCCCS(=O)(=O)NCc1ccc(C(=O)O)cc1` [Compound 5a, 4-(Pentylsulfonamidomethyl)benzoic acid] here?
**A.** Its IC50 is 72 ± 1.7 µM.

**Q.** And the melting point?
**A.** The melting point was 188 to 189 °C.

**Q.** For `CCCCCCCCS(=O)(=O)Nc1cc(-c2cccc(C(C)=O)c2)ccc1C(=O)O`, which “FAO SC 150” value (FAO) is on record?
**A.** Its value is “FAS (IC50) Not Tested CPT I Stim Not Tested FAO SC 150 Neg SA/MH (MIC) ug/ml”.

**Q.** What about the IC50 (mtGPAT1; [4]) of the same compound?
**A.** Its IC50 is 29.2 µM.

**Q.** Which “FAO SC 150” value (FAO) does the source give for `CCCCCCCCS(=O)(=O)Nc1cc(-c2ccc(OC)cc2)ccc1C(=O)O` here?
**A.** Its value is “FAS (IC50) Not Tested CPT I Stim Not Tested FAO SC 150 Neg SA/MH (MIC) ug/ml”.

**Q.** What about the IC50 (mtGPAT1; [4]) of the same compound?
**A.** The IC50 was 16 µM.

**Q.** With `CCCCCCCCS(=O)(=O)Nc1ccc(-c2cccs2)cc1C(=O)O` as the compound, how does the “FAO SC 150” value (FAO) read?
**A.** Its value is “FAS (IC50) Not Tested CPT I Stim Not Tested FAO SC 150 Neg SA/MH (MIC) ug/ml”.

**Q.** What about the IC50 (mtGPAT1; [4]) of the same compound?
**A.** Its IC50 is 22.2 µM.
